# Data from ChEMBL document CHEMBL4732170, “Discovery of Small-Molecule Antagonists of the PWWP Domain of NSD2” (J Med Chem, 2021).
# Active and inactive are the calls of the source. No cut-off for these calls is given here.
# Assays:
# [1] = target: T1, Histone-lysine N-methyltransferase NSD2 (Homo sapiens) (UniProt O96028); conditions: filed as antagonist, dose 400.0 µM
# T1 sequence (whole entry): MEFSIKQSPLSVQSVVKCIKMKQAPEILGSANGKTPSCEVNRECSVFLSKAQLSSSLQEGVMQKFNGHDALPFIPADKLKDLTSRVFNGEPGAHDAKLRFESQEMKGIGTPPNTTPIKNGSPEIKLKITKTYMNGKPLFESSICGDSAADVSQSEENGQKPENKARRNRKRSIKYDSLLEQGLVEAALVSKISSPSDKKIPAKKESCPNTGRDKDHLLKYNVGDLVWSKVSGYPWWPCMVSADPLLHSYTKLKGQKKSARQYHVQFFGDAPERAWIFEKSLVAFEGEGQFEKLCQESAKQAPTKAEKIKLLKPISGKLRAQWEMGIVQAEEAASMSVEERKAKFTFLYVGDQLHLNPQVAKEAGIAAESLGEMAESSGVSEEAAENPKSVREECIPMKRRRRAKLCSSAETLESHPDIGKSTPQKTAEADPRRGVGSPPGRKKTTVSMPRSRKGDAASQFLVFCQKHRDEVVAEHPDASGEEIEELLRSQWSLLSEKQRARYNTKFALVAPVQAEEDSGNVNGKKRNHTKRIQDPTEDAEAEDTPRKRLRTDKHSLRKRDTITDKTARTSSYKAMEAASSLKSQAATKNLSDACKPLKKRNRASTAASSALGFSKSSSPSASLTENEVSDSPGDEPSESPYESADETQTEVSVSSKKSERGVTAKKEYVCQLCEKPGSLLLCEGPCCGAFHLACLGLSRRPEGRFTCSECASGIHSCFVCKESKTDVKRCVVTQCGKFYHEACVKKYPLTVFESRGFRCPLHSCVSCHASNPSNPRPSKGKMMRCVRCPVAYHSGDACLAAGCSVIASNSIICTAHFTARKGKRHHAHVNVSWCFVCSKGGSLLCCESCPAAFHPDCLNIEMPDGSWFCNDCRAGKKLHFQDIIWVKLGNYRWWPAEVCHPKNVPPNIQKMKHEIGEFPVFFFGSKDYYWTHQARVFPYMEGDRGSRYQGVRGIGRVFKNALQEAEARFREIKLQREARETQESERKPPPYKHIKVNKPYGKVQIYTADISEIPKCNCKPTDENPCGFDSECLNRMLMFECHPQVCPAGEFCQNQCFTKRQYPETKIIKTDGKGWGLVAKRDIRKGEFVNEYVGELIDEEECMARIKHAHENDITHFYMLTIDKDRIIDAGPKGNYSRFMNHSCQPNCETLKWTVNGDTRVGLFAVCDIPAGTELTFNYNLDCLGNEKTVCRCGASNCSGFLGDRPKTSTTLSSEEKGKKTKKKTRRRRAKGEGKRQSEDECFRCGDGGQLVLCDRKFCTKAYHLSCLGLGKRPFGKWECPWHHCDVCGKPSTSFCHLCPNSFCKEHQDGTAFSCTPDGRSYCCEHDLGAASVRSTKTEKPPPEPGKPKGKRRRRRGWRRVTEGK
# Description: Binding affinity to NSD2 PWWP1 domain (unknown origin) assessed as change in aggregation temperature at 400 uM by heating at 25 to 85 degC by differential static light scattering method
# [2] = target: T2, Zinc finger MYND domain-containing protein 11 (Homo sapiens) (UniProt Q15326); assay: Binding affinity to ZMYND11 PWWP1 domain (unknown origin) assessed as aggregation temperature at 400 uM by heating at 25 to 85 degC by differential static light scattering method
# T2 sequence (whole entry): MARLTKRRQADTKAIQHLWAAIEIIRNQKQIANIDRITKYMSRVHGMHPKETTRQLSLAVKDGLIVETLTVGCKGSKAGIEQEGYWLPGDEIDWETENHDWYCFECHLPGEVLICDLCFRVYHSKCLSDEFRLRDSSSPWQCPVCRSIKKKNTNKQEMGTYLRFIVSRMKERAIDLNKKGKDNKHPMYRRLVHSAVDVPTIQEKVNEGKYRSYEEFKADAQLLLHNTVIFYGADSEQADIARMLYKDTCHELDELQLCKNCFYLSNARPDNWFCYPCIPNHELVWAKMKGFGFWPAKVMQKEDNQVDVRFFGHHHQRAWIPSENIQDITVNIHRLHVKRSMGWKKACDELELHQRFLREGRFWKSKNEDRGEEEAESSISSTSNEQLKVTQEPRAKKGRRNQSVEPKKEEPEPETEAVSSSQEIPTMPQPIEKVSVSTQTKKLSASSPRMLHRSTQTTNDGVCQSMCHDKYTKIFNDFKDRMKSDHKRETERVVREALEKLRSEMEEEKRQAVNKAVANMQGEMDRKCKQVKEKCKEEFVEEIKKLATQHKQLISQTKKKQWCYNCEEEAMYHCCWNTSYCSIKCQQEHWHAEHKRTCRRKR
structure (smiles),measurement,setting,value
N#Cc1ccc(C(C(N)=O)N2CCC2c2ccc(Cl)cc2)cc1 (configuration not stated),deltaT,[1],3.9 °C
same,Activity,[2],inactive
